The source of these data is US20260028365A1 (BIOGEN MA INC., priority 2022, published 2026).

Like-named read-outs stand apart in the source and are kept apart here.

One assay concerns the target JH2 domain of human Tyk2 (Homo sapiens (Human), UniProt P29597). In words: JH2 Biochemical Assay (TR-FRET probe displacement). In kind it is binding.
For a further assay, the target named is Tyk2 (Homo sapiens (Human), UniProt P29597). Nature of the assay: pSTAT4 Cell Assay (MSD, NK92 cells). In kind it is cell-based.
For the next assay, the target named is JAK2 (Homo sapiens (Human), UniProt O60674). Nature of the assay: pSTAT5 Cell Assay (MSD, TF1 cells). In kind it is cell-based. Conditions: IL-3 stimulated. In short, it runs like this:
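Serum-starved TF1 cells were pretreated with compound for 1 h (10-point four-fold series from 10 μM), then stimulated with 30 ng/mL IL-3 for 15 min. pSTAT5 in lysates was measured by MSD immunoassay. IC50 came from a 4-parameter logistic fit.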

For a further assay, the target named is JAK1 (Homo sapiens (Human), UniProt P23458). Nature of the assay: pSTAT3 Cell Assay (MSD, TF1 cells). In kind it is cell-based. To be noted: IL-6 stimulated. In short, it runs like this: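 Serum-starved TF1 cells with endogenous JAK1/STAT3 were pretreated 1 h with compound in a 10-point four-fold dilution series from 10 μM, then stimulated with 30 ng/mL IL-6 for 15 min. pSTAT3 in lysates was quantified by MSD immunoassay, and IC50 came from 4-parameter logistic fits.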

Where [1] appears, read: JH2 domain of human Tyk2, TR-FRET probe displacement.
Where [2] appears, read: TR-FRET probe displacement, JH2 domain.

Chain of JAK1 (P23458 whole entry): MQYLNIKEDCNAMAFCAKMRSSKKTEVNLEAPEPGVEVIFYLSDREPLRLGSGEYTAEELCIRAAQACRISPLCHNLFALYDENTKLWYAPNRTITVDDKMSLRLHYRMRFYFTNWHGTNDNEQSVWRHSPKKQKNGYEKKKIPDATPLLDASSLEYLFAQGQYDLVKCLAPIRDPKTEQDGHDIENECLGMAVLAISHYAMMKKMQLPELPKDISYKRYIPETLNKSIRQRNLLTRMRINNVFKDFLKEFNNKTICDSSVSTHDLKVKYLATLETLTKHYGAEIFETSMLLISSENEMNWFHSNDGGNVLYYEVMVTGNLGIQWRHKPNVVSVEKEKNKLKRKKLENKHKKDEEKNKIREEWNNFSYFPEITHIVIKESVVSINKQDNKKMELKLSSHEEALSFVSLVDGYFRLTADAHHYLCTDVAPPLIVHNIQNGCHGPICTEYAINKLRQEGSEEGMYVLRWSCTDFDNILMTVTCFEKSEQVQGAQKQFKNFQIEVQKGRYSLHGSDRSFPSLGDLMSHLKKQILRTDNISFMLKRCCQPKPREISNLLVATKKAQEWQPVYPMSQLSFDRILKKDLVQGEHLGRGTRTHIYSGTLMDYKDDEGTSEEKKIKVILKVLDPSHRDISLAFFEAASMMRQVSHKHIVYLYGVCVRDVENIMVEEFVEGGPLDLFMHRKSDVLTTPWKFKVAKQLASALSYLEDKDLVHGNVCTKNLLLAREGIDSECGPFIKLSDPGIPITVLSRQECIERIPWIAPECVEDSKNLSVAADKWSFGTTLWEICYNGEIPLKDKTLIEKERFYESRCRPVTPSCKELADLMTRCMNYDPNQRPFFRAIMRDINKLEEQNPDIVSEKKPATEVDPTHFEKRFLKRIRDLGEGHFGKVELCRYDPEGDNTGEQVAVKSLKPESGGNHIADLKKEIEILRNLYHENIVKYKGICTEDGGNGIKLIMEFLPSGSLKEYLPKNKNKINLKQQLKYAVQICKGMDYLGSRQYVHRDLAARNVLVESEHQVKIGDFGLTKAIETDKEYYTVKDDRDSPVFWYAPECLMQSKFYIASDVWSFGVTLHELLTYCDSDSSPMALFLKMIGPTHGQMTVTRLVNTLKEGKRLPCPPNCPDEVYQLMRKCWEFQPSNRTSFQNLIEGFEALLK
Chain of Tyk2 (P29597 whole entry): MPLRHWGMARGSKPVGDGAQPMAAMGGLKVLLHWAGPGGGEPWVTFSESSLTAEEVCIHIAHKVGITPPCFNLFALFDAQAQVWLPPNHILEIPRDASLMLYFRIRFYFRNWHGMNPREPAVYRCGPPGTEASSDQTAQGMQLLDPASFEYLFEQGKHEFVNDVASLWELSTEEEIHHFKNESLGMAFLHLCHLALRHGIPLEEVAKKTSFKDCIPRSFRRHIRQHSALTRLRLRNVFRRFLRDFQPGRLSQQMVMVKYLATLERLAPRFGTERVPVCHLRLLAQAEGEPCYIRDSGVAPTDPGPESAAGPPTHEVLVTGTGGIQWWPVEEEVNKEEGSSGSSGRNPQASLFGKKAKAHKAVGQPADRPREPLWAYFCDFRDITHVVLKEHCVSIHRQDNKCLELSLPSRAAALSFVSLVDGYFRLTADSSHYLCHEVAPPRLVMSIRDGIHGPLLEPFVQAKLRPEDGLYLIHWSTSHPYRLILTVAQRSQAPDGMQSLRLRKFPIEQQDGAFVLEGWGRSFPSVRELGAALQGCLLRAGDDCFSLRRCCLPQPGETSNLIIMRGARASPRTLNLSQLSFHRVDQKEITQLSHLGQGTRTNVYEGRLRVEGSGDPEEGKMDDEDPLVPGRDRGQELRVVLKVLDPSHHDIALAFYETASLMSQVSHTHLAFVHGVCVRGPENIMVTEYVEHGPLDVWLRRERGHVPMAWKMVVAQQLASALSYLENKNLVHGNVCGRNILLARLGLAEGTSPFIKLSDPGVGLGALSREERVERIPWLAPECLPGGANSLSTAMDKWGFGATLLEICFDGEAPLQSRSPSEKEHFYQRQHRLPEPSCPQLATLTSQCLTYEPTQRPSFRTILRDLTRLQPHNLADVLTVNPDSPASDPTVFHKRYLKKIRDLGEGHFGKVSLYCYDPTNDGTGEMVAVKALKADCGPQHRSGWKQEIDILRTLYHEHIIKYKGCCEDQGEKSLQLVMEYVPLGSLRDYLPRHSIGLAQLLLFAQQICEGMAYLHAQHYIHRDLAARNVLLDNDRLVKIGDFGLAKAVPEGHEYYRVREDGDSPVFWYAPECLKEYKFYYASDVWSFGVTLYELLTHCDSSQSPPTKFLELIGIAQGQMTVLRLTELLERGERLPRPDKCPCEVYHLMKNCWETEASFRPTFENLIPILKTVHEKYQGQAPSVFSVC
Chain of JAK2 (O60674 whole entry): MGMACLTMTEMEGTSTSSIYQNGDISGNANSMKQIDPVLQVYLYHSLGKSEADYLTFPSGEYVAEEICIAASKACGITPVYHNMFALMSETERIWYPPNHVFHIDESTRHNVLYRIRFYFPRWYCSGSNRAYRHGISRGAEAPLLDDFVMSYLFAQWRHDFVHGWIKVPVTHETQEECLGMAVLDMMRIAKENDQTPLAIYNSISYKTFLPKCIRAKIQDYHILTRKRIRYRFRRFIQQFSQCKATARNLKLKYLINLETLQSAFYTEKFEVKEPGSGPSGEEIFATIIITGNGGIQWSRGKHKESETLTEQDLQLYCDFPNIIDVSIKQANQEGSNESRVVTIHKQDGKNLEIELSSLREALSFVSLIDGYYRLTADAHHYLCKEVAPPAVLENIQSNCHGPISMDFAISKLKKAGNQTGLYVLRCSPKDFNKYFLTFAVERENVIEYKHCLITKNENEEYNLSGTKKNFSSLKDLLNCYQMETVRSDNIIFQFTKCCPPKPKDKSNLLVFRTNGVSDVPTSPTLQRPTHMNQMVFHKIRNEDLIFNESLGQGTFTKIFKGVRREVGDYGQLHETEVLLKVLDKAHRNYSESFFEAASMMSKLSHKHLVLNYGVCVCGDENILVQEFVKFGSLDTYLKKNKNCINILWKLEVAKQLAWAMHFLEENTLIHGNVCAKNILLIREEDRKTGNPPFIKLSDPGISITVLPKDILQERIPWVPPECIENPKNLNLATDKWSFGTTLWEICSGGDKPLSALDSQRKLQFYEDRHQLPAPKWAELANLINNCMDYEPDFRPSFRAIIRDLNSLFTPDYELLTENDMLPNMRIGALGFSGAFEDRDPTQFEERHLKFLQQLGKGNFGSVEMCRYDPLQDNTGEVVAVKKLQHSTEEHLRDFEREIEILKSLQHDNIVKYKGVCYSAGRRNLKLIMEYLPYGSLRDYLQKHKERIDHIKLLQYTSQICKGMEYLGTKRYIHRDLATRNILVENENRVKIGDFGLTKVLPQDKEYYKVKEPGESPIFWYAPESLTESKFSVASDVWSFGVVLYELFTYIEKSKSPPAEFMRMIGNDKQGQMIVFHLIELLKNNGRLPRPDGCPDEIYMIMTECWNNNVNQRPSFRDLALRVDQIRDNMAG
Chain of JH2 domain of human Tyk2 (P29597 575-876): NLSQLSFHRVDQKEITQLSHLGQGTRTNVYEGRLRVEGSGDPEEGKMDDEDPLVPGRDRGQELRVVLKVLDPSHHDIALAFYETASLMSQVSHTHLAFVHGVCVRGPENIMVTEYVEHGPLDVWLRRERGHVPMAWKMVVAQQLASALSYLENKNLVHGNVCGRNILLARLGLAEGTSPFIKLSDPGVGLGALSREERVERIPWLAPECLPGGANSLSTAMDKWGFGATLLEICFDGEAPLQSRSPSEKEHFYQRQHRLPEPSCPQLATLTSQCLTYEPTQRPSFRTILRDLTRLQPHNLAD

As a reminder, the IC50 is the concentration at which inhibition is half-maximal. On to `CC(=O)Nc1cc(Nc2cc(C)nc(C(C)(F)F)n2)c(-c2ncccn2)cn1` [Example 668, N-(4-((2-(1,1-difluoroethyl)-6-methylpyrimidin-4-yl)amino)-5-(pyrimidin-2-yl)pyridin-2-yl)acetamide], for which the IC50 was not above 10 nM on JH2 domain of human Tyk2 (setting [1]), not above 10 nM against Tyk2 (MSD), not below 1000 nM against JAK2 (MSD) and not below 1000 nM against JAK1 (MSD).
Turning to `COc1ccc(-c2cnc(NC(C)=O)cc2Nc2cc(C)nc(C(C)(F)F)n2)nn1` [Example 676, N-(4-((2-(1,1-difluoroethyl)-6-methylpyrimidin-4-yl)amino)-5-(6-methoxypyridazin-3-yl)pyridin-2-yl)acetamide], the IC50 is not above 10 nM at JH2 domain of human Tyk2 (setting [1]), not above 10 nM on Tyk2 (MSD), not below 1000 nM at JAK2 (MSD) and not below 1000 nM on JAK1 (MSD).
As to `CC(=O)Nc1cc(Nc2cc(C)nc(C(C)(F)F)n2)c(-c2cn3ccnc3cn2)cn1` [Example 681, N-(4-((2-(1,1-difluoroethyl)-6-methylpyrimidin-4-yl)amino)-5-(imidazo[1,2-a]pyrazin-6-yl)pyridin-2-yl)acetamide], the IC50 on JH2 domain of human Tyk2 (setting [1]) was not above 10 nM; against Tyk2 (MSD), not above 10 nM; on JAK2 (MSD) it was not below 1000 nM; against JAK1 (MSD), not below 1000 nM.
Turning to `CC(=O)Nc1cc(Nc2ccnc(C(C)(F)F)n2)c(-c2cn(C)c(C#N)n2)cn1` [Example 707, N-(5-(2-cyanO1-methyl-1H-imidazol-4-yl)-4-((2-(1,1-difluoroethyl)pyrimidin-4-yl)amino)pyridin-2-yl)acetamide], the IC50 is not above 10 nM at JH2 domain of human Tyk2 (setting [1]), not above 10 nM against Tyk2 (MSD), not below 1000 nM against JAK2 (MSD) and not below 1000 nM against JAK1 (MSD).
As to `CC(=O)Nc1cc(Nc2ccnc(C(C)(F)F)n2)c(-c2cnn(C(C)C)n2)cn1` [Example 708, N-(4-((2-(1,1-difluoroethyl)pyrimidin-4-yl)amino)-5-(2-isopropyl-2H-1,2,3-triazol-4-yl)pyridin-2-yl)acetamide], the IC50 was not above 10 nM at JH2 domain of human Tyk2 (setting [1]), not above 10 nM at Tyk2 (MSD), not below 1000 nM on JAK2 (MSD) and not below 1000 nM on JAK1 (MSD).
As for `CC(=O)Nc1cc(Nc2ccnc(C(C)(F)F)n2)c(-c2nnc(C(C)(C)C)s2)cn1` [Example 715, N-(5-(5-(tert-butyl)-1,3,4-thiadiazol-2-yl)-4-((2-(1,1-difluoroethyl)pyrimidin-4-yl)amino)pyridin-2-yl)acetamide], the concentration for half-maximal inhibition (IC50) was not above 10 nM on JH2 domain of human Tyk2 (setting [1]), not above 10 nM against Tyk2 (MSD), not below 1000 nM at JAK2 (MSD) and not below 1000 nM on JAK1 (MSD).
As for `CCc1cc(Nc2cc(NC(C)=O)ncc2-c2ncccn2)nc(C(C)(F)F)n1` [Example 719, N-(4-((2-(1,1-difluoroethyl)-6-ethylpyrimidin-4-yl)amino)-5-(pyrimidin-2-yl)pyridin-2-yl)acetamide], the IC50 at JH2 domain of human Tyk2 (setting [1]) is not above 10 nM; against Tyk2 (MSD), not above 10 nM; on JAK2 (MSD) it was not below 1000 nM; on JAK1 (MSD), not below 1000 nM.
In the case of `CC(=O)Nc1cc(Nc2ccnc(C(C)(F)F)n2)ccn1` [Example 724, N-(4-((2-(1,1-difluoroethyl)pyrimidin-4-yl)amino)pyridin-2-yl)acetamide], the 50% inhibitory concentration (IC50) is 10 to 100 nM at JH2 domain of human Tyk2 (setting [1]), not below 1000 nM at Tyk2 (MSD), not below 1000 nM on JAK2 (MSD) and not below 1000 nM against JAK1 (MSD).
`COCc1cc(-c2cnc(NC(C)=O)cc2Nc2cc(C)nc(C(C)(F)F)n2)nn1C` [Example 757, N-(4-((2-(1,1-difluoroethyl)-6-methylpyrimidin-4-yl)amino)-5-(5-(methoxymethyl)-1-methyl-1H-pyrazol-3-yl)pyridin-2-yl)acetamide]: the IC50 on JH2 domain of human Tyk2 (setting [2]) is not above 10 nM; at Tyk2, not above 10 nM; against JAK2, not below 1000 nM; on JAK1 it was 100 to 1000 nM.
`CCc1cc(Nc2cc(NC(C)=O)ncc2-c2ccncn2)nc(C(C)(F)F)n1` [Example 799, N-(4-((2-(1,1-difluoroethyl)-6-ethylpyrimidin-4-yl)amino)-5-(pyrimidin-4-yl)pyridin-2-yl)acetamide]: the IC50 on JH2 domain of human Tyk2 (setting [2]) was not above 10 nM; against Tyk2, not above 10 nM; against JAK2, not below 1000 nM; against JAK1, not below 1000 nM.
Consider `CC(=O)Nc1cc(Nc2ccnc(C(C)(F)F)n2)c(-c2ncc(OC(F)F)cn2)cn1` [Example 825, N-(4-((2-(1,1-difluoroethyl)pyrimidin-4-yl)amino)-5-(5-(difluoromethoxy)pyrimidin-2-yl)pyridin-2-yl)acetamide], for which the concentration for half-maximal inhibition (IC50) is not above 10 nM at JH2 domain of human Tyk2 (setting [2]), 10 to 100 nM against Tyk2, not below 1000 nM against JAK2 and not below 1000 nM against JAK1.
In the case of `CC(=O)Nc1cc(Nc2ccnc(C(C)(F)F)n2)c(-c2ccc(OC(F)F)cn2)cn1` [Example 826, N-(4′-((2-(1,1-difluoroethyl)pyrimidin-4-yl)amino)-5-(difluoromethoxy)-[2,3′-bipyridin]-6′-yl)acetamide], the IC50 on JH2 domain of human Tyk2 (setting [2]) was not above 10 nM; at Tyk2, not above 10 nM; at JAK2, not below 1000 nM; against JAK1, not below 1000 nM.
With `COCc1cnc(-c2cnc(NC(C)=O)cc2Nc2cc(C)nc(C(C)(F)F)n2)cn1` [Example 834, N-(4-((2-(1,1-difluoroethyl)-6-methylpyrimidin-4-yl)amino)-5-(5-(methoxymethyl)pyrazin-2-yl)pyridin-2-yl)acetamide], the IC50 on JH2 domain of human Tyk2 (setting [2]) is not above 10 nM; at Tyk2, not above 10 nM; on JAK2, not below 1000 nM; against JAK1, not below 1000 nM.
For `COc1ccc(-c2cnc(NC(C)=O)cc2Nc2ccnc(C(C)(C)F)n2)nn1` [Example 835, N-(4-((2-(2-fluoropropan-2-yl)pyrimidin-4-yl)amino)-5-(6-methoxypyridazin-3-yl)pyridin-2-yl)acetamide], the IC50 is not above 10 nM at JH2 domain of human Tyk2 (setting [2]), not above 10 nM on Tyk2, not below 1000 nM on JAK2 and not below 1000 nM at JAK1.
For `CCc1cc(Nc2cc(NC(C)=O)ncc2-c2cnc(COC)cn2)nc(C(C)(F)F)n1` [Example 836, N-(4-((2-(1,1-difluoroethyl)-6-ethylpyrimidin-4-yl)amino)-5-(5-(methoxymethyl)pyrazin-2-yl)pyridin-2-yl)acetamide], the IC50 on JH2 domain of human Tyk2 (setting [2]) is not above 10 nM; at Tyk2, not above 10 nM; against JAK2, not below 1000 nM; against JAK1, not below 1000 nM.
Turning to `CCc1cc(Nc2cc(NC(C)=O)ncc2-c2ncc(C3COCCO3)cn2)nc(C(C)(F)F)n1` (stereo not shown) [Example 840, N-(5-(5-(1,4-dioxan-2-yl)pyrimidin-2-yl)-4-((2-(1,1-difluoroethyl)-6-ethylpyrimidin-4-yl)amino)pyridin-2-yl)acetamide], the IC50 was not above 10 nM on JH2 domain of human Tyk2 (setting [2]), not above 10 nM on Tyk2, not below 1000 nM against JAK2 and not below 1000 nM on JAK1.
As to `COCc1ccc(-c2cnc(NC(C)=O)cc2Nc2ccnc(C(C)(F)F)n2)nc1` [Example 851, N-(4′-((2-(1,1-difluoroethyl)pyrimidin-4-yl)amino)-5-(methoxymethyl)-[2,3′-bipyridin]-6′-yl)acetamide], the IC50 on JH2 domain of human Tyk2 (setting [2]) is not above 10 nM; on Tyk2 it was not above 10 nM; at JAK2, not below 1000 nM; at JAK1, not below 1000 nM.
In the case of `CC(=O)Nc1cc(Nc2ccnc(C(C)(F)F)n2)c(-c2cnc(C(C)(C)O)cn2)cn1` [Example 853, N-(4-((2-(1,1-difluoroethyl)pyrimidin-4-yl)amino)-5-(5-(2-hydroxypropan-2-yl)pyrazin-2-yl)pyridin-2-yl)acetamide], the IC50 on JH2 domain of human Tyk2 (setting [2]) is not above 10 nM; on Tyk2 it was 10 to 100 nM; against JAK2, not below 1000 nM; against JAK1 it was not below 1000 nM.
With `CCc1cc(Nc2cc(NC(N)=O)ncc2-c2cnccn2)nc(C(C)(F)F)n1` [Example 920], the IC50 on JH2 domain of human Tyk2 (setting [2]) was not above 10 nM; on Tyk2, not above 10 nM; at JAK2, not below 1000 nM; against JAK1, not below 1000 nM.
